# Data published in the kinase profiling compilation of Christmann-Franck et al. (2016).
# Key:
# Experiment in all cases: radiometric filter-binding kinase assay, Kinase HotSpot
# Settings in all cases: compound 0.5 µM; ATP 10 µM
# PRKCH (human) = PRKCH (human) (UniProt P24723)
# CDK2 CCNE1 (human) = CDK2 CCNE1 (human) (UniProt P24941+P24864)
# CDK1 CCNA2 (human) = CDK1 CCNA2 (human) (UniProt P06493+P20248)
# CDK2 CCNA2 (human) = CDK2 CCNA2 (human) (UniProt P24941+P20248)
# CDK1 CCNB1 (human) = CDK1 CCNB1 (human) (UniProt P06493+P14635)
# CDK9 CCNT1 (human) = CDK9 CCNT1 (human) (UniProt P50750+O60563)
# Sequence of CDK9 CCNT1 (human) (O60563 whole entry, looked up): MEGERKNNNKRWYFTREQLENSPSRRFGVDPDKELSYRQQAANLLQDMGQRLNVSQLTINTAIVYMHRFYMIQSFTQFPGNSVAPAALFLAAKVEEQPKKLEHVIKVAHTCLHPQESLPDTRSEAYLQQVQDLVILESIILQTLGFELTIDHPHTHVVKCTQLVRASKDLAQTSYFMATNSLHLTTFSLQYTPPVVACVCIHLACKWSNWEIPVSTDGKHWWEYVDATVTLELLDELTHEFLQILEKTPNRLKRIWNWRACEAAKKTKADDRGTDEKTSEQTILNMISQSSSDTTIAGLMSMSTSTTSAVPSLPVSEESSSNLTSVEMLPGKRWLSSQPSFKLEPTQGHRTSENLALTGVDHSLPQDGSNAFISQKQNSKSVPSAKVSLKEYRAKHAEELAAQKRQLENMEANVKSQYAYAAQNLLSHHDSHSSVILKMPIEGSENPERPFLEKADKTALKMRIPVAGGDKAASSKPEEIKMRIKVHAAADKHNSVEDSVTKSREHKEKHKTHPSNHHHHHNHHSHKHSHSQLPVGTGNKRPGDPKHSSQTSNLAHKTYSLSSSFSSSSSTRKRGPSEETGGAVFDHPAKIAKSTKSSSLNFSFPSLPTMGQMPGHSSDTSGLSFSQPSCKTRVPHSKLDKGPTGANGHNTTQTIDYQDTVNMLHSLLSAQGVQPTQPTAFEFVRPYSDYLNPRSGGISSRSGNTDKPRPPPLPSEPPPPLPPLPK
# Sequence of CDK9 CCNT1 (human) (P50750 whole entry, looked up): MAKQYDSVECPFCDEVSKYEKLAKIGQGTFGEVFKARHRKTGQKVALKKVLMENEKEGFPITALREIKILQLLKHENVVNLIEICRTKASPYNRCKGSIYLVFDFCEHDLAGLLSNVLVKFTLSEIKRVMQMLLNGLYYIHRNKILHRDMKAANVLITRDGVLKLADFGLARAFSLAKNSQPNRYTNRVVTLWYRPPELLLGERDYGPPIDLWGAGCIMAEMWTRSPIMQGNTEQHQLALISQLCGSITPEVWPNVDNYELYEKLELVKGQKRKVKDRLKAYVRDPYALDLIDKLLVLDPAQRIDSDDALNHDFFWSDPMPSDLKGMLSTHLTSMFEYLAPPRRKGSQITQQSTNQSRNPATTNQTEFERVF
# DYRK1B (human) = DYRK1B (human) (UniProt Q9Y463)
# CDK5 CDK5R1 p25 (human) = CDK5 CDK5R1 p25 (human) (UniProt Q00535+Q15078)
# CDK6 CCND1 (human) = CDK6 CCND1 (human) (UniProt Q00534+P24385)
# STK33 (human) = STK33 (human) (UniProt Q9BYT3)
# CDK9 CCNK (human) = CDK9 CCNK (human) (UniProt O75909+P50750)
# CDK5 CDK5R1 p35 (human) = CDK5 CDK5R1 p35 (human) (UniProt Q00535+Q15078)
# CDK6 CCND3 (human) = CDK6 CCND3 (human) (UniProt P30281+Q00534)
# Sequence of CDK6 CCND3 (human) (P30281 whole entry, looked up): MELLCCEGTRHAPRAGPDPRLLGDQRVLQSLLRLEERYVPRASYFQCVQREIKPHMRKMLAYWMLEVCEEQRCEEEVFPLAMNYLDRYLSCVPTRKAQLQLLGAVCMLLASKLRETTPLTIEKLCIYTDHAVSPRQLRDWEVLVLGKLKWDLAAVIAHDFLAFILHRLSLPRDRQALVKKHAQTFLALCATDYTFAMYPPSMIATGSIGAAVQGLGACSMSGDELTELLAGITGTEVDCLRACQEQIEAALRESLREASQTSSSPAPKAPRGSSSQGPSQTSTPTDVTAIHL
# Sequence of CDK6 CCND3 (human) (Q00534 whole entry, looked up): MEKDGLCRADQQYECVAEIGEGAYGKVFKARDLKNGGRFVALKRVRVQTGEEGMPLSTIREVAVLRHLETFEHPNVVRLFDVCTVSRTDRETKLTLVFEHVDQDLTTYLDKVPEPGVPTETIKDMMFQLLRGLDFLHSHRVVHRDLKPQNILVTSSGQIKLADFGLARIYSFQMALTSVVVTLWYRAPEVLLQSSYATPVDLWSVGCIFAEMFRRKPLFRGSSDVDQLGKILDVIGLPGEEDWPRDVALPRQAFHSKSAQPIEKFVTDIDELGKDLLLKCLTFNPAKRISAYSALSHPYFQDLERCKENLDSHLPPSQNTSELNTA
# CDK4 CCND3 (human) = CDK4 CCND3 (human) (UniProt P30281+P11802)
# CDK7 CCNH MNAT1 (human) = CDK7 CCNH MNAT1 (human) (UniProt P50613+P51948+P51946)
# CDK4 CCND1 (human) = CDK4 CCND1 (human) (UniProt P24385+P11802)
# LTK (human) = LTK (human) (UniProt P29376)
# Sequence of LTK (human) (P29376 whole entry, looked up): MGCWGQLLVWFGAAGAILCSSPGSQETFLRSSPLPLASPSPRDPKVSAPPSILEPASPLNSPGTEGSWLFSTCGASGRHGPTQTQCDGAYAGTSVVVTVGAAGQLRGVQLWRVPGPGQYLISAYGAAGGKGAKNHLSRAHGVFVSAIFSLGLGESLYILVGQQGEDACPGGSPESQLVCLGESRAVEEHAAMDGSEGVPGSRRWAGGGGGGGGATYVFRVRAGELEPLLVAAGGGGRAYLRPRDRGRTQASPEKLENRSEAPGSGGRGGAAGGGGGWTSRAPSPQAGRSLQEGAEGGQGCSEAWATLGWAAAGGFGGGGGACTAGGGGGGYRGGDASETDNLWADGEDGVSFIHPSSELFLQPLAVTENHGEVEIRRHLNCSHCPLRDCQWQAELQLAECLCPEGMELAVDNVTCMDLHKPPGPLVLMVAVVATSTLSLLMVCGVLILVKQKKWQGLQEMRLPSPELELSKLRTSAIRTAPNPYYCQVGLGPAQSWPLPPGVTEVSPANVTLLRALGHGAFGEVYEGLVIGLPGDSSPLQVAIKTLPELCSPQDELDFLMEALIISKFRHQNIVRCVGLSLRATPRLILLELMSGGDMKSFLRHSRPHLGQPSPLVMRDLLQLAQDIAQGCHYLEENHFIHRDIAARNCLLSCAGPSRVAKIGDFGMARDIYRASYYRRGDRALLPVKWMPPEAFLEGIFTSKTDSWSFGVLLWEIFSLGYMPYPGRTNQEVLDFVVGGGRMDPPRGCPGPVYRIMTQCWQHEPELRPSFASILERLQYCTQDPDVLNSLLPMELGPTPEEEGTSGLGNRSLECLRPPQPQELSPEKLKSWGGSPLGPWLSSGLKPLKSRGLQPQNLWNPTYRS
# MAP3K7 TAB1 (human) = MAP3K7 TAB1 (human) (UniProt O43318+Q15750)
# CDK3 CCNE1 (human) = CDK3 CCNE1 (human) (UniProt Q00526+P24864)
# [1] = system: PRKCQ (human), Q04759 [P330L]
# Sequence of PRKCQ (human), Q04759 [P330L] (Q04759 whole entry P330L, looked up): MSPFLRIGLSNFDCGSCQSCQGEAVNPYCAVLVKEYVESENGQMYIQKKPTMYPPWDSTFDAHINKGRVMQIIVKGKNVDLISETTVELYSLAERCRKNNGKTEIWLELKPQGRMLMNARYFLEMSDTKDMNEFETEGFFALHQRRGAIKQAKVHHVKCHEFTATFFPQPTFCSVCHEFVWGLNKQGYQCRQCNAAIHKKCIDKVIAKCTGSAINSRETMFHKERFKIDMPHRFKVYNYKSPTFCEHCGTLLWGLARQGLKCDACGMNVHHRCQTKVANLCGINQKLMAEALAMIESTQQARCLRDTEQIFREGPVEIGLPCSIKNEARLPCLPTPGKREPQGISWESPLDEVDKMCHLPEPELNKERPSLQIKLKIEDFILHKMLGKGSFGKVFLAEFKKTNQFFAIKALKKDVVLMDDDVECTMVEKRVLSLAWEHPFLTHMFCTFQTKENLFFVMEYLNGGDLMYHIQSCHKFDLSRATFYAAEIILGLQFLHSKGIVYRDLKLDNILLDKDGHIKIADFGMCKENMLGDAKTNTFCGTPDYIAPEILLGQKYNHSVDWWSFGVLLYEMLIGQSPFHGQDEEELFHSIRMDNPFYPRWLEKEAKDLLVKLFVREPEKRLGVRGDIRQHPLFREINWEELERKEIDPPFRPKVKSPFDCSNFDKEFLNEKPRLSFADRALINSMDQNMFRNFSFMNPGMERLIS
# [2] = system: MAP2K6 (human), P52564 [S207E/T211E]
# [3] = system: FLT4 (human), P35916 [Q890H]
# [4] = system: MKNK1 (human), Q9BUB5 [T385D; 165-205 del]
# Sequence of MKNK1 (human), Q9BUB5 [T385D; 165-205 del] (Q9BUB5 whole entry, looked up, stated change not applied): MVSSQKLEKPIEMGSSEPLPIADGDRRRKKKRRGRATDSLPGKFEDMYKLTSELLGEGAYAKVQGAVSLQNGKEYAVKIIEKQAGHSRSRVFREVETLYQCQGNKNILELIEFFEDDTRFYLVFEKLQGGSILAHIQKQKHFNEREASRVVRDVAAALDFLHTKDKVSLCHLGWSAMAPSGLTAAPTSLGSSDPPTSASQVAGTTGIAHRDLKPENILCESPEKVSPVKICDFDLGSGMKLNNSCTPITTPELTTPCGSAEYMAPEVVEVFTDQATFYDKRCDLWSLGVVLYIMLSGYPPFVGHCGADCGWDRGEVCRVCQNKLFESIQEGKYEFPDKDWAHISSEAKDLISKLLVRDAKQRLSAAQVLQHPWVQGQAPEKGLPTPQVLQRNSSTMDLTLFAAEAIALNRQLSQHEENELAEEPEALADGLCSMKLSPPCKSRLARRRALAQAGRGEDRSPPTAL
# Sequence of CDK2 CCNA2 (human) (P20248 whole entry, looked up, other chains not shown): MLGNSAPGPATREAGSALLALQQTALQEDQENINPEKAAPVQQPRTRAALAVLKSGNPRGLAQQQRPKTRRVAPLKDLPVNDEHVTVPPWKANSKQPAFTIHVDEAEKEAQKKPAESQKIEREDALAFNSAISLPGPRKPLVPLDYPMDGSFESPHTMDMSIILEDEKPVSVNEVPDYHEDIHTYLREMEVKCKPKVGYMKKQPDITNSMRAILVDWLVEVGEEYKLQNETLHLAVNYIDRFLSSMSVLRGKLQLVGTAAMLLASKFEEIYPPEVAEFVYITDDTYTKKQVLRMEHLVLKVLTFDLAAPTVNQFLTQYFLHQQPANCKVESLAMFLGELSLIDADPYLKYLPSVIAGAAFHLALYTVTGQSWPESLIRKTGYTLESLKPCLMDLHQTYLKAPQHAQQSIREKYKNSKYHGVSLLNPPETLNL
# Sequence of PRKCH (human) (P24723 whole entry, looked up): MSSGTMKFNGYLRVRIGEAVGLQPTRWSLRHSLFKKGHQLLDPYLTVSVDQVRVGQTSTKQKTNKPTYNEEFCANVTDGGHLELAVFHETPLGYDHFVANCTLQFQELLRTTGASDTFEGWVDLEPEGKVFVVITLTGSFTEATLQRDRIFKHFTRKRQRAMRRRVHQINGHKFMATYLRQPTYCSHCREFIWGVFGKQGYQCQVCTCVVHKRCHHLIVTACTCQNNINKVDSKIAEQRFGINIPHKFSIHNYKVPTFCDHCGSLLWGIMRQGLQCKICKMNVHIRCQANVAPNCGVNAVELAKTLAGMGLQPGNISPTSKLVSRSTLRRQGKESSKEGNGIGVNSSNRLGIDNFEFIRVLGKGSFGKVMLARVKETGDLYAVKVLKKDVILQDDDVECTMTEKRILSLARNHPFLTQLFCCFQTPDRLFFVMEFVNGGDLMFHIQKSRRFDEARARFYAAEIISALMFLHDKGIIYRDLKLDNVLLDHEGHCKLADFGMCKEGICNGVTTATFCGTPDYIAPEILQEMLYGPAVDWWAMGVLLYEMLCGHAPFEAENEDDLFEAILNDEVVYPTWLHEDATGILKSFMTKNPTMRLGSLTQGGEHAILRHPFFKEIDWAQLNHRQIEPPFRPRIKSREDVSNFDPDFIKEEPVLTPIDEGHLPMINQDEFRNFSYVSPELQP
Compound,residual activity [1],residual activity [2],residual activity [3],residual activity [4],also measured
Cc1cn(-c2cc(NC(=O)c3ccc(C)c(Nc4nccc(-c5cccnc5)n4)c3)cc(C(F)(F)F)c2)cn1,,,,,residual activity (PRKCH (human)): 121%; residual activity (CDK2 CCNE1 (human)): 98.9%; residual activity (CDK1 CCNA2 (human)): 99.7%; residual activity (CDK2 CCNA2 (human)): 95.5%; residual activity (CDK1 CCNB1 (human)): 97.8%; residual activity (CDK9 CCNT1 (human)): 94.7%; residual activity (DYRK1B (human)): 92.8%; residual activity (CDK5 CDK5R1 p25 (human)): 91.7%; residual activity (CDK6 CCND1 (human)): 97.1%; residual activity (STK33 (human)): 87.1%; residual activity (CDK9 CCNK (human)): 97.9%; residual activity (CDK5 CDK5R1 p35 (human)): 105%; residual activity (CDK6 CCND3 (human)): 128%; residual activity (CDK4 CCND3 (human)): 108%; residual activity (CDK7 CCNH MNAT1 (human)): 109%; residual activity (CDK4 CCND1 (human)): 97%; residual activity (LTK (human)): 101%; residual activity (MAP3K7 TAB1 (human)): 89.2%; residual activity (CDK3 CCNE1 (human)): 95.2%
NCCNc1ncc(C(N)=O)c(Nc2cccc(C(F)(F)F)c2)n1,,,,,residual activity (CDK2 CCNE1 (human)): 89%; residual activity (CDK1 CCNA2 (human)): 88.3%; residual activity (CDK2 CCNA2 (human)): 97.6%; residual activity (CDK1 CCNB1 (human)): 81.7%; residual activity (CDK9 CCNT1 (human)): 82%; residual activity (DYRK1B (human)): 85.9%; residual activity (CDK5 CDK5R1 p25 (human)): 92.4%; residual activity (CDK6 CCND1 (human)): 94.6%; residual activity (STK33 (human)): 81.9%; residual activity (CDK9 CCNK (human)): 95.6%; residual activity (CDK5 CDK5R1 p35 (human)): 84.2%; residual activity (CDK6 CCND3 (human)): 100%; residual activity (CDK4 CCND3 (human)): 94.8%; residual activity (CDK7 CCNH MNAT1 (human)): 98.5%; residual activity (CDK4 CCND1 (human)): 108%; residual activity (LTK (human)): 84.8%; residual activity (MAP3K7 TAB1 (human)): 71.2%; residual activity (CDK3 CCNE1 (human)): 95.3%
CN1CCN(c2ccc3nc(-c4c(N)c5c(F)cccc5[nH]c4=O)[nH]c3c2)CC1,,,,,residual activity (PRKCH (human)): 103%; residual activity (CDK2 CCNE1 (human)): 92.3%; residual activity (CDK1 CCNA2 (human)): 93.6%; residual activity (CDK2 CCNA2 (human)): 91%; residual activity (CDK1 CCNB1 (human)): 90.9%; residual activity (CDK9 CCNT1 (human)): 97.7%; residual activity (DYRK1B (human)): 87.9%; residual activity (CDK6 CCND1 (human)): 74.6%; residual activity (STK33 (human)): 60.7%; residual activity (CDK9 CCNK (human)): 91.1%; residual activity (CDK6 CCND3 (human)): 31.9%; residual activity (CDK4 CCND3 (human)): 89.6%; residual activity (CDK7 CCNH MNAT1 (human)): 104%; residual activity (CDK4 CCND1 (human)): 79.5%; residual activity (LTK (human)): 92.5%; residual activity (MAP3K7 TAB1 (human)): 19.3%; residual activity (CDK3 CCNE1 (human)): 92.3%
O=C1c2ccccc2-c2n[nH]c3cccc1c23,,,,,residual activity (PRKCH (human)): 87.6%; residual activity (CDK2 CCNE1 (human)): 79.5%; residual activity (CDK1 CCNA2 (human)): 85.6%; residual activity (CDK2 CCNA2 (human)): 76.1%; residual activity (CDK1 CCNB1 (human)): 63.4%; residual activity (CDK9 CCNT1 (human)): 99.3%; residual activity (DYRK1B (human)): 65.7%; residual activity (CDK6 CCND1 (human)): 88.6%; residual activity (STK33 (human)): 47.7%; residual activity (CDK9 CCNK (human)): 96%; residual activity (CDK6 CCND3 (human)): 88.6%; residual activity (CDK4 CCND3 (human)): 104%; residual activity (CDK7 CCNH MNAT1 (human)): 94.7%; residual activity (CDK4 CCND1 (human)): 96.3%; residual activity (LTK (human)): 77.8%; residual activity (MAP3K7 TAB1 (human)): 59.3%; residual activity (CDK3 CCNE1 (human)): 94.3%
CCn1cnc2c(Nc3cccc(Cl)c3)nc(N[C@@H]3CCCC[C@@H]3N)nc21,93.3%,100%,105%,101%,
O=C1NC(=O)c2c1c1c3ccccc3n3c1c1c2c2ccccc2n1C1CCC3O1,43.2%,19.3%,4.97%,48.6%,
O=C(Nc1cccc(Nc2cc(Nc3cccc(C(F)(F)F)c3)ncn2)c1)C1CC1,87.8%,108%,107%,96.7%,
CN(C)C[C@H]1CCn2c(c(C3=C(c4cn(C)c5ccccc45)C(=O)NC3=O)c3ccccc32)C1,12.7%,109%,114%,100%,
NC(=O)c1ccc(N(C(N)=O)c2c(F)cccc2F)nc1-c1ccc(F)cc1F,85.1%,96.5%,97.5%,91.4%,
CC(=O)c1ccc(N2CCOCC2)cc1O,99.5%,94.2%,112%,102%,
CCc1nc(-c2ccc(OC)cc2)[nH]c1-c1ccncc1,121%,110%,123%,115%,
O=C1Nc2ccc(Cl)cc2/C1=C/c1cc(Cl)c(O)c(Cl)c1,105%,96.4%,87.3%,103%,
CC[C@@H](CO)Nc1nc(NCc2ccccc2)c2ncn(C(C)C)c2n1,90%,98.2%,94%,96.4%,
FC(F)(F)c1ccc(/C=C/c2nc(COc3ccc(CCCCn4ccnn4)cc3)co2)cc1,99.9%,100%,98%,89.5%,
Oc1ccc(Nc2nc(-c3ccc(Cl)cc3)cs2)cc1,123%,94%,101%,98.9%,
COc1cc2ncnc(Nc3cccc(Cl)c3)c2cc1OC,105%,88.7%,99.3%,80.8%,
Cn1cnc2cc3c(Nc4cccc(Br)c4)ncnc3cc21,96.9%,104%,89.7%,39.9%,
Oc1ccc(-c2nc(-c3ccc(F)cc3)c(-c3ccncc3)[nH]2)cc1,115%,109%,101%,102%,
CC[n+]1c(/C=C/N(C)c2ccccc2)n(-c2ccccc2)c2ccc(-c3nc4ccccc4s3)cc21,94.6%,103%,90.9%,102%,
COc1cc2c(N3CCN(C(=O)Nc4ccc(OC(C)C)cc4)CC3)ncnc2cc1OCCCN1CCCCC1,103%,102%,94.6%,89.7%,
O=C1NC(=O)C(c2cn(CCCO)c3ncccc23)=C1c1cnccn1,81.7%,91.1%,92.3%,100%,
COc1ccc(CNC(=O)Nc2ncc([N+](=O)[O-])s2)cc1,96.9%,85.9%,91.2%,98.4%,
O=C1Nc2ccccc2/C1=C1\Nc2ccccc2\C1=N/O,99.1%,83.5%,53%,99.6%,
c1ccc(-c2n[nH]c3c2oc2ccccc23)cc1,83.8%,92.9%,108%,96.2%,
Nc1ccc2ncnc(NCCc3ccc(Oc4ccccc4)cc3)c2c1,108%,96.6%,101%,106%,
Nc1n[nH]c2nnc(-c3c(-c4ccccc4)nn4ccccc34)cc12,79.9%,90.9%,89.9%,98.5%,
O=c1cc(N2CCNCC2)oc2c(-c3ccccc3)cccc12,117%,96.2%,104%,107%,
COc1ccc(-c2cnc3c(-c4ccsc4)cnn3c2)cc1,98.7%,95.9%,94.1%,87.1%,
